Legend:
[1] = test system: human CD8+ T-cells from umbilical cord blood; experiment: CD62L flow cytometry of human cord blood mononuclear cells (CBMC); type: cell-based; conditions: day 11; AG221 5 μM, MK2206 1 μM; DMSO control about 35%
Description: (§1) Methods: Mononuclear Cells were isolated from fresh umbilical cord blood on a Percoll Gradient (CBMCs). 10^4 CBMC's were seeded per well in a round bottom 96-well plate in RPMI with 10% human serum, and activated with (magnetic) αCD3/CD28 at a 1:2 cell:bead ratio and 300 U/ml rhIL-2, in the presence of 5 μM AG221 or DMSO, or 1 μM MK2206 (AKT inhibitor). After 11 days of culture, CD62L expression was analyzed by flow cytometry on a fraction of the cells (FIG. 15A). The other cells were washed 2 times and placed in a magnet to remove the inhibitors and the αCD3/CD28 beads. The cells were then rested for 4 hours before restimulating them for 4 hours with 1 ng/ml Phorbol 12-Myristate 13-Acetate (PMA, a PKC activator) and 50 μg/ml Ionomycin (a Ca^2+ ionophore, activating NF-KB and NFAT) in the presence of 50 μ/ml golgi inhibitor (Brefeldin A, BFA), allowing for the measurement of intracellular accumulation of different cytokines by flow cytometry.

[2] = test system: human CD8+ T-cells; experiment: Cytokine expression after PMA and Ionomycin restimulation of human CBMC-derived T-cells; type: cell-based; conditions: day 11 cells, inhibitors washed out, PMA and ionomycin 4 hours
Description: as §1

[3] = test system: OT1 CD8+ T-cells; experiment: Flow cytometry of surface activation and memory markers on in vitro cultured OT1 CD8+ T-cells; type: cell-based, mouse; conditions: 5 μM inhibitor day 0-3, flow cytometry on day 3 and 7
Description: Example 2. In vitro culture of splenocytes comprising CD8+ T-cells. OT1 splenocytes (as described in Example 1) were cultured for 3 days at a concentration of 10^6 cells per mL in RPMI medium (Gibco 61870-01) supplemented with 10% FCS, (Gibco 10270-106), 1% Penicillin/Streptomycin (P/S; Gibco 15070-063), 0.1% 13-mercaptoethanol, 1% HEPES (Gibco 15630-080), 1× Non-essential amino acids (Gibco 11140-035), 1% L-glutamine (Gibco 25030-081), 1 mM Sodium Pyruvate (Gibco 11360-039), 100 U/m1 hIL-2 (Glaxo-IMB) and 1 μg/ml ovalbumin N4 peptide (SIINFEKL). To evaluate the effects of IDH2 inhibition on T-cell differentiation, 5 μM of a small molecule IDH2 inhibitor (AG221 or AGI6780) or a DMSO solvent control was added during this 3-day culture period. At day 3, a fraction of the splenocytes was collected and the remaining cells were cultured for 4 additional days with 100 U/ml hIL-2 and 10 ng/ml hIL-7 (Peprotech 200-07) supplementation after washing out the inhibitors and the ovalbumine N4 peptide (FIG. 1). At day 3 and day 7, the activation and differentiation state of CD8+ T-cells was determined by gene expression analysis, flow cytometry and extracellular metabolic flux analyses (see Example 3).
Cells were incubated in a live/dead stain (Fixable aqua dead cell stain kit, Invitrogen) followed by an incubation with different antibody panels.
Antibody panel to determine the differentiation and activation state of in vitro cultured T-cells (see Examples 2 and 4): anti-CD8-PE-texas-Red, anti-CD62L-FITC, anti-CD127-PE, anti-CD27-PerCP-Cy5.5, anti-CD71-PE-Cy7, anti-CD44-APC-Cy7, anti-CD98-APC, anti-CD25-Pacific blue (BD Pharmingen and eBioscience, San Diego, Calif., USA). All those antigens are surface molecules. Cells were gated on living single CD8+ cells before analysis of activation and memory marker expression. For the unstained control, cells were stained with the live/dead stain and anti-CD8-PE-texas-Red.
Cells were acquired on LSR-II flow cytometers from the flow cytometry facility of UNIL and data were analyzed with FlowJo™ 10 software. Antibodies were purchased from BD Phamingen (San Diego, Calif., USA), eBioscience (San Diego, Calif., USA, and Biolegend (San Diego, Calif., USA).

Row | Compound | CD8+ cells expressing CD62L [1] | TNF expression upon restimulation [2] | expression of effector cytokine IFNγ upon restimulation [2] | production of IL-2 upon restimulation [2] | CD62L surface expression compared to DMSO [3] | other surface markers (CD25, CD44, CD71, CD98, CD27, CD127) compared to DMSO [3]
1 | NC1(c2ccc(-c3nc4ccn5c(=O)[nH]nc5c4cc3-c3ccccc3)cc2)CCC1 [MK2206] | about 75% | unaffected | detrimental | unaltered |  | 
2 | O=C(Nc1cccc(C(F)(F)F)c1)Nc1cc(S(=O)(=O)NC2CC2)ccc1-c1ccsc1 [AGI6780, 1-[5-(cyclopropylsulfamoyl)-2-thiophen-3-ylphenyl]-3-[3-(trifluoromethyl)phenyl]urea] |  |  |  |  | increased | generally unchanged
